Reference: patent US12685320B2, “Food processing oxidation treatment forumlations and methods” (Clean Chemistry, Inc., priority 2023, dated 2026)

Columns and labels:
Salmonella spp. = assay: Poultry chiller tank (pre-chiller and red water main chiller): Salmonella on inoculated poultry thighs; type: cell-based, S. Infantis, S. Typhimurium, S. Enteritidis; conditions: for Recovered average Log10 CFU/g: pH>8.5
Experimental: (§1) A standardized test was conducted to compare the antimicrobial efficacy, residual decay, and effect on solution pH of peracetate and peracetic acid in reducing Salmonella spp. on poultry as a processing method directed to control microbial growth or inactivate microorganisms in food products during processing to lower risk of foodborne pathogens or spoilage microorganisms. The objective of this study was to determine the efficacy of peracetate and peracetic acid treatments for reducing Salmonella spp. on poultry thighs in a treatment bath under conditions simulating pre-chiller and red water main chiller applications. To mimic these applications in a poultry processing facility, target concentrations were determined to be 150 ppm of either peracetate (as PAA equivalents) or peracetic acid in the simulated pre-chiller application and 75 ppm of either peracetate (as PAA equivalents) or peracetic acid in the simulated red water main chiller application. Both applications targeted a pH>8.5 to simulate the intentional alkalinity of chillers in poultry processing facilities.
(§2) The pH, temperature, and residual antimicrobial concentration (measured as either peracetate or peracetic acid) were monitored through the duration of both applications. […]
The inoculum used in this study was prepared from three reference strains of Salmonella: S. Infantis (Reference Strain ID: ATCC 51741), S. Typhimurium (Reference Strain ID: ATCC 13311), and S. Enteritidis (Reference Strain ID: ATCC 13076). […] Colonies from each strain were placed into individual tubes of buffered peptone water (BPW) determined using a spectrophotometer (ThermoFisher Scientific, 1700/0512). […] Post incubation, colonies were counted, and log transformed reported. […]
Prior to inoculation, the average weight of the poultry thighs used in this study was determined to be 150 grams. […]

[1] = Poultry chiller tank: residual decay and odor of antimicrobial baths; type: physicochemical
Experimental: as §1, with “Both applications targeted a pH>8.5 to simulate the intentional alkalinity of chillers in poultry processing facilities.” left out
as §2
During the pre-chiller and main chiller treatments, the temperature, pH, and antimicrobial concentrations were monitored and recorded every 10 minutes. […] After incubating, colonies were counted, and log transformed.

CC(=O)OO [peracetic acid]
Recovered average Log10 CFU/g (Salmonella spp.; main chiller treatment (after pre-chiller), target 75 ppm, untreated main chiller control 4.13): 3.45 Log10 CFU/g
difference in antimicrobial effectiveness of peracetic acid and peracetate (Salmonella spp.; pre-chiller and main chiller): No significant difference
Recovered average Log10 CFU/g (Salmonella spp.; pre-chiller treatment, target 150 ppm, untreated 5.46, untreated pre-chiller control 4.76): 3.65 Log10 CFU/g
additional antimicrobial required to maintain minimum concentration ([1]; pre-chiller application): 13.0 mL
additional antimicrobial required to maintain minimum concentration ([1]; red water main chiller application): 26.0 mL
